Assay results from patent US20110312495A1, “SYNERGISTIC HERBICIDAL COMPOSITION CONTAINING CLOPYRALID AND FLORASULAM” (DOW AGROSCIENCES LLC, priority 2010, published 2011).

What was measured:
Experiment in all cases: Postemergence herbicidal activity under field conditions, visual weed control
Type in all cases: in vivo
Details in all cases: field trial #1, 45 to 92 days after application
[1] = test system: Bachelor's button (Centaurea cyanus, CENCY)
Protocol: (§1) These trials were conducted under field conditions in Germany. Trial sites were located in commercially grown winter barley and winter rye. The crops were grown using normal cultural practices for fertilization, seeding, and maintenance to ensure good growth of the crop and the weeds. The trials were conducted using normal research methodology. Trial plots were between 2.5 to 3 meters (m) wide by 6 to 10 m long. All treatments were applied using a randomized complete block trial design with 3 replications per treatment. The trial sites had naturally occurring populations of weeds. The weed spectrum included, but was not limited to, scentless mayweed (Matricaria inodora, MATIN), field forget-me-not (Myosotis arvensis, MYOAR), and Bachelor's button (Centaurea cyanus, CENCY).
(§2) Treatments consisted of formulated products applied in water. The application volumes were 200 liter per hectare (L/ha). All application were made using precision bicycle sprayers using a 3 m boom using flat fan (80° or 110°) nozzles to broadcast the treatments on the testing plots.
(§3) The treated plots and control plots were rated blind at various intervals after application. Ratings were based of Percent (%) Visual weed control, where 0 corresponds to no injury and 100 corresponds to complete kill. […]

[2] = test system: field forget-me-not (Myosotis arvensis, MYOAR)
Protocol: as §1, §2, §3

[3] = test system: scentless mayweed (Matricaria inodora, MATIN)
Protocol: as §1, §2, §3

Structure (SMILES) | CENCY Obs - Percent control observed ([1]; florasulam 2.5 g ai/ha alone) [%] | CENCY Obs - Percent control observed ([1]; florasulam 3.75 g ai/ha alone) [%] | CENCY Obs - Percent control observed ([1]; florasulam 5 g ai/ha alone) [%] | MYOAR Obs - Percent control observed ([2]; florasulam 2.5 g ai/ha alone) [%] | MYOAR Obs - Percent control observed ([2]; florasulam 3.75 g ai/ha alone) [%] | MYOAR Obs - Percent control observed ([2]; florasulam 5 g ai/ha alone) [%] | MATIN Obs - Percent control observed ([3]; florasulam 2.5 g ai/ha alone) [%] | MATIN Obs - Percent control observed ([3]; florasulam 3.75 g ai/ha alone) [%] | MATIN Obs - Percent control observed ([3]; florasulam 5 g ai/ha alone) [%] | CENCY Obs - Percent control observed ([1]; clopyralid 30 g ae/ha alone) [%] | CENCY Obs - Percent control observed ([1]; clopyralid 45 g ae/ha alone) [%] | CENCY Obs - Percent control observed ([1]; clopyralid 60 g ae/ha alone) [%] | MYOAR Obs - Percent control observed ([2]; clopyralid 30 g ae/ha alone) [%] | MYOAR Obs - Percent control observed ([2]; clopyralid 45 g ae/ha alone) [%] | MYOAR Obs - Percent control observed ([2]; clopyralid 60 g ae/ha alone) [%] | MATIN Obs - Percent control observed ([3]; clopyralid 30 g ae/ha alone) [%] | MATIN Obs - Percent control observed ([3]; clopyralid 45 g ae/ha alone) [%] | MATIN Obs - Percent control observed ([3]; clopyralid 60 g ae/ha alone) [%]
COc1ncc(F)c2nc(S(=O)(=O)Nc3c(F)cccc3F)nn12 [Florasulam, 2′,6′,8-trifluoro-5-methoxy[1,2,4]triazolo[1,5-c]-pyrimidine-2-sulfonanilide] | 20 | 40 | 70 | 50 | 50 | 67 | 60 | 67 | 53 |  |  |  |  |  |  |  |  | 
O=C(O)c1nc(Cl)ccc1Cl [Clopyralid, 3,6-dichloropyridine-2-carboxylic acid] |  |  |  |  |  |  |  |  |  | 37 | 57 | 73 | 0 | 0 | 0 | 0 | 50 | 58
